Experimental data as given in patent US11274118B2 (priority 2012, dated 2022).
Values after ≈ are worked out from the molar mass of the structure shown.

Legend:
[1] = physchem; conditions: kinetic from dmso stock
[2] = physchem; conditions: buffer, pH 7
[3] = system: Primary cortical cells; assay: Reduction of neuronal cell death after a glutamate challenge (MTT / LDH release); type: cell-based; conditions: for inhibition at 5 µM: 24 h, read-out: reduction in cell death at a 5 μM dose; for dose at maximum efficacy: glutamate challenge, primary cortical cells; for Emax: read-out: maximum efficacy, reduction in cell death

| Compound | solubility at 90 min ([1]; pH 4, aqueous buffer) [µM] | solubility at 90 min ([1]; pH 7, aqueous buffer) [µM] | half-life [2] [h] | inhibition at 5 µM [3] [%] | dose at maximum efficacy [3] [µM] | Emax [3] [%] |
| --- | --- | --- | --- | --- | --- | --- |
| C/C(=N\OC(=O)C[N+](C)(C)C)[C@H]1CC[C@H]2[C@@H]3CCC4=CC(=O)CC[C@]4(C)[C@H]3CC[C@]12C.[I-] [Compound 11, (8S,9S,10R,13S,14S,17S)-17-((E)-1-(2-(triimethylamino)acetoxyimino)ethyl)-10,13-dimethyl-6,7,8,9,10,11,12,13,14,15,16,17-dodecahydro-1H-cyclopenta[a]phenanthren-3(2H)-one Iodide] | > 540 | 45 | – | – | – | – |
| C/C(=N\OC(=O)CN1CCN(C)CC1)[C@H]1CC[C@H]2[C@@H]3CCC4=CC(=O)CC[C@]4(C)[C@H]3CC[C@]12C [Compound 13, (8S,9S,10R,13S,14S,17S)-10,13-Dimethyl-17-((E)-1-(2-(4-methylpiperazin-1-yl)acetoxyimino)ethyl)-6,7,8,9,10,11,12,13,14,15,16,17-dodecahydro-1H-cyclopenta[a]phenanthren-3 (2H)-one] | 153 (≈ 71.9 µg/mL) | 145 (≈ 68.1 µg/mL) | ~72 | – | – | – |
| C/C(=N\OC(=O)[C@@H]1CCCNC1)[C@H]1CC[C@H]2[C@@H]3CCC4=CC(=O)CC[C@]4(C)[C@H]3CC[C@]12C.Cl [Compound 21, (8S,9S,10R,13S,14S,17S)-10,13-dimethyl-17-((E)-1-((R)-piperidine-3-carbonyloxyimino)ethyl)-6,7,8,9,10,11,12,13,14,15,16,17-dodecahydro-1H-cyclopenta[a]phenanthren-3 (2H)-one hydrochloride] | > 500 | 428 | – | – | – | – |
| C/C(=N\OC(=O)c1ccc(CN2CCN(C)CC2)cc1)[C@H]1CC[C@H]2[C@@H]3CCC4=CC(=O)CC[C@]4(C)[C@H]3CC[C@]12C [Compound 17, (8S,9S,10R,13S,14S,17S)-10,13-dimethyl-17-((E)-1-(4-((4-methylpiperazin-1-yl)methyl)benzoyloxyimino)ethyl)-6,7,8,9,10,11,12,13,14,15,16,17-dodecahydro-1H-cyclopenta[a]phenanthren-3(2H)-one] | < 30 | < 30 | – | – | – | – |
| C/C(=N\OC(=O)c1ccc[n+](C)c1)[C@H]1CC[C@H]2[C@@H]3CCC4=CC(=O)CC[C@]4(C)[C@H]3CC[C@]12C.[I-] [Compound 15, 3-(((E)-1-((8S,9S,10R,13S,14S,17S)-10,13-Dimethyl-3-oxo-2,3,6,7,8,9,10,11,12,13,14,15,16,17-tetradecahydro-1H-cyclopenta[a]phenanthren-17-yl)ethylideneaminooxy)carbonyl)-1-methylpyridinium iodide] | 349 | 212 | – | 0 | 1 | 14 |
| C/C(=N\OC(=O)[C@H]1CCCNC1)[C@H]1CC[C@H]2[C@@H]3CCC4=CC(=O)CC[C@]4(C)[C@H]3CC[C@]12C.Cl [Compound 22, (8S,9S,10R,13S,14S,17S)-10,13-Dimethyl-17-((E)-1-((S)-piperidine-3-carbonyloxyimino)ethyl)-6,7,8,9,10,11,12,13,14,15,16,17-dodecahydro-1H-cyclopenta[a]phenanthren-3(2H)-one hydrochloride] | 314 | 314 | – | – | – | – |
| CC(=O)O/N=C(\C)[C@H]1CC[C@H]2[C@@H]3CCC4=CC(=O)CC[C@]4(C)[C@H]3CC[C@]12C [Compound 6, (8 S,9S,10R,13S,14S,17S)-17-((E)-1-(acetoxyimino)ethyl)-10,13-dimethyl-6,7,8,9,10,11,12,13,14,15,16,17-dodecahydro-1H-cyclopenta[a]phenanthren-3(2H)-one] | 180 (≈ 66.9 µg/mL) | 100 (≈ 37.2 µg/mL) | – | – | – | – |
| C/C(=N\OC(=O)[C@@H]1CCCN1)[C@H]1CC[C@H]2[C@@H]3CCC4=CC(=O)CC[C@]4(C)[C@H]3CC[C@]12C.Cl [Compound 8, (8S,9S,10R,13S,14S,17S)-10,13-Dimethyl-17-((E)-1-((S)-pyrrolidine-2-carbonyloxyimino)ethyl)-6,7,8,9,10,11,12,13,14,15,16,17-dodecahydro-1H-cyclopenta[a]phenanthren-3(2H)-one Hydrochloride] | 395 | 34 | – | 21 | 10 | 33 |
| C/C(=N\OC(=O)C1CC[N+](C)(C)CC1)[C@H]1CC[C@H]2[C@@H]3CCC4=CC(=O)CC[C@]4(C)[C@H]3CC[C@]12C.[I-] [Compound 20, (8S,9S,10R,13S,14S,17S)-10,13-Dimethyl-17-((E)-1-(1,1-dimethylpiperidine-4-carbonyloxyimino)ethyl)-6,7,8,9,10,11,12,13,14,15,16,17-dodecahydro-1H-cyclopenta[a]phenanthren-3(2H)-one iodide] | > 500 | > 500 | – | 0 | 5 | 0 |
| C/C(=N\OC(=O)C1CCN(C)CC1)[C@H]1CC[C@H]2[C@@H]3CCC4=CC(=O)CC[C@]4(C)[C@H]3CC[C@]12C [Compound 19, (8S,9S,10R,13S,14S,17S)-10,13-Dimethyl-17-((E)-1-(1-methylpiperidine-4-carbonyloxyimino)ethyl)-6,7,8,9,10,11,12,13,14,15,16,17-dodecahydro-1H-cyclopenta[a]phenanthren-3(2H)-one] | > 660 | 108 (≈ 49.1 µg/mL) | – | – | – | – |
| C/C(=N\OC(=O)C1CCNCC1)[C@H]1CC[C@H]2[C@@H]3CCC4=CC(=O)CC[C@]4(C)[C@H]3CC[C@]12C.Cl [Compound 18, (8S,9S,10R,13S,14S,17S)-10,13-Dimethyl-17-((E)-1-(piperidine-4-carbonyloxyimino)ethyl)-6,7,8,9,10,11,12,13,14,15,16,17-dodecahydro-1H-cyclopenta[a]phenanthren-3(2H)-one hydrochloride] | 247 | 247 | – | 4 | 10 | 24 |
| C/C(=N\OC(=O)CN1CCOCC1)[C@H]1CC[C@H]2[C@@H]3CCC4=CC(=O)CC[C@]4(C)[C@H]3CC[C@]12C [Compound 12, (8S,9S,10R,13S,14S,17S)-10,13-Dimethyl-17-((E)-1-(2-morpholinoacetoxyimino)ethyl)-6,7,8,9,10,11,12,13,14,15,16,17-dodecahydro-1H-cyclopenta[a]phenanthren-3(2H)-one] | 215 (≈ 98.2 µg/mL) | 215 (≈ 98.2 µg/mL) | – | – | – | – |
| C/C(=N\OC(=O)c1ccc(CN)cc1)[C@H]1CC[C@H]2[C@@H]3CCC4=CC(=O)CC[C@]4(C)[C@H]3CC[C@]12C.Cl [Compound 16, (8S,9S,10R,13S,14S,17S)-17-((E)-1-(4-(aminomethyl)benzoyloxyimino)ethyl)-10,13-dimethyl-6,7,8,9,10,11,12,13,14,15,16,17-dodecahydro-1H-cyclopenta[a]phenanthren-3 (2H)-one] | < 30 | < 30 | – | – | – | – |
| C/C(=N\OC(=O)c1cccnc1)[C@H]1CC[C@H]2[C@@H]3CCC4=CC(=O)CC[C@]4(C)[C@H]3CC[C@]12C [Compound 14] | < 35 | < 35 | – | 20 | 5 | 20 |
